Laboratory results as given in patent US6215002A, “Pyrrolopyrrolone derivatives as inhibitors of neutrophil elastase” (priority 1996, dated 2001).
Where a name gives a salt, the structure may show the parent alone.

Target: T1, human neutrophil elastase (Homo sapiens, UniProt P08246)
T1 sequence (P08246 30-267): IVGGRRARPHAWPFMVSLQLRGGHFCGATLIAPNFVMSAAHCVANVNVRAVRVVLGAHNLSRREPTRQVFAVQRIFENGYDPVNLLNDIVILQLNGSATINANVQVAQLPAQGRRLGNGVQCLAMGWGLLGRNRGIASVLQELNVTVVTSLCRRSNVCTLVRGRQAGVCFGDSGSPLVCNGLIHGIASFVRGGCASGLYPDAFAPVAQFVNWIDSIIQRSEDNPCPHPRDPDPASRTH
Assay: In vitro assay of human neutrophil elastase (HNE)
Type: biochemical
Details: 118 nM purified human neutrophil elastase, pH 8.6, 15 min incubation at 30° C., MeO-succinyl-alanyl-alanyl-prolyl-valyl-p-nitroanilide substrate; read-out: HNE IC50
Description: In Vitro Assays of Human Neutrophil Elastase
118 nM purified human neutrophil elastase
Suitable concentrations of compound under test diluted with water from a 10 mM stock solution in dimethylsulphoxide. Values above are final concentrations after the addition of substrate solution (see below).
The mixture above is incubated for fifteen minutes at 30° C. at which time the remaining elastase activity is measured for 10 minutes in a BioTek 340i plate-reader, after the addition of 0.6 mM MeO-succinyl-alanyl-alanyl-prolyl-valyl-p-nitroanilide. The rate of increase in absorbance at 405 nm is proportional to elastase activity. Enzyme activity is plotted against concentration of inhibitor and an IC50 determined using curve fitting software.
1. The compounds were tested in the in vitro elastase test described earlier in the description.

Row | SMILES | IC50
1 | CCC[C@H]1C(=O)N(S(C)(=O)=O)[C@H]2CCN(C(=O)CCN3CCCCC3)[C@H]12 (relative stereo) [Example 30, rel-(3R,3aR,6aS)-1-Methanesulfonyl-4-(3-piperidin-1-yl-propionyl)-3-propyl-hexahydro-pyrrolo[3,2-b]pyrrol-2-one hydrochloride] | 189 nM
2 | CCC[C@H]1C(=O)N(S(=O)(=O)c2cccc3ccccc23)[C@H]2CCN(S(=O)(=O)Cc3cccc(-c4nn[nH]n4)c3)[C@H]12 (relative stereo) [Example 32, rel-(3R,3aR,6aS)-1-(Naphthalene-1-sulfonyl)-3-propyl-4-[3-(1H-tetrazol-5-yl)-phenylmethanesulfonyl]-hexahydro-pyrrol[3,2-b]pyrrol-2-one] | 286 nM
3 | CCC[C@H]1C(=O)N(S(=O)(=O)/C=C/c2ccccc2)[C@H]2CCN(S(=O)(=O)Cc3ccccc3)[C@H]12 (relative stereo) [Example 33, rel-(3R,3aR,6aS)-1-(2-Phenyl-(E)-ethenesulfonyl)-4-phenylmethanesulfonyl-3-propyl-hexahydro-pyrrolo[3,2-b]pyrrol-2-one] | 458 nM
4 | CC[C@H]1C(=O)N(S(=O)(=O)c2ccc3ccccc3c2)[C@H]2CCN(S(=O)(=O)CCCN3CCOCC3)[C@H]12 (relative stereo) [Example 35, rel-(3R,3aR,6aS)-3-Ethyl-4-(3-morpholin-4-yl)-propane-1-sulfonyl)-1-(naphthalene-2-sulfonyl)-hexahydro-pyrrolo[3,2-b]pyrrol-2-one meso-tartrate] | 697 nM
5 | CCC[C@H]1C(=O)N(S(=O)(=O)c2cccc3ccccc23)[C@H]2CCN(S(=O)(=O)CCCN3CCOCC3)[C@H]12 (relative stereo) [Example 36, rel-(3R,3aR,6aS)-4-(3-Morpholin-4-yl-propane-1-sulfonyl)-1-(naphthalene-1-sulfonyl)-3-propyl-hexahydro-pyrrolo[3,2-b]pyrrol-2-one] | 125 nM
6 | C=CC[C@H]1C(=O)N(S(=O)(=O)c2cccc(S(=O)(=O)N(C)C)c2)[C@H]2CCN(C(=O)OCc3ccccc3)[C@H]12 (relative stereo) [Example 37, rel-(3aS,6R,6aR)-6-Allyl-4-(3-dimethylsulfamoyl-benzenesulfonyl)-5-oxo-hexahydro-pyrrolo[3,2-b]pyrrole-1-carboxylic acid benzyl ester] | 138 nM
7 | C=CC[C@H]1C(=O)N(S(=O)(=O)c2cccc([N+](=O)[O-])c2)[C@H]2CCN(C(=O)OCc3ccccc3)[C@H]12 (relative stereo) [Example 38, rel-(3aS,6R,6aR)-6-Allyl-4-(3-nitro-benzenesulfonyl)-5-oxo-hexahydro-pyrrolo[3,2-b]pyrrole-1-carboxylic acid benzyl ester] | 205 nM
8 | CCC[C@H]1C(=O)N(S(=O)(=O)c2ccc3ccccc3c2)[C@H]2CCN(C(=O)CCCN3CCCCC3)[C@H]12 (relative stereo) [Example 39, rel-(3R,3aR,6aS)-1-(Naphthalene-2-sulfonyl)-4-(4-piperidin-l-yl-butyryl)-3-propyl-hexahydro-pyrrolo[3,2-b]pyrrol-2-one tartrate] | 189 nM
9 | C=CC[C@H]1C(=O)N(S(=O)(=O)CCc2ccccc2)[C@H]2CCN(C(=O)OCc3ccccc3)[C@H]12 (relative stereo) [Example 43, rel-(3aS,6R,6aR)-6-Allyl-5-oxo-4-(2-phenyl-ethanesulfonyl)-hexahydro-pyrrolo[3,2-b]pyrrole-1-carboxylic acid benzyl ester] | 408 nM
10 | C=CC[C@H]1C(=O)N(S(=O)(=O)/C=C/c2ccccc2)[C@H]2CCN(C(=O)OCc3ccccc3)[C@H]12 (relative stereo) [Example 44, rel-(3aS,6R,6aR)-6-Allyl-5-oxo-4-(2-phenyl-(E)-ethenesulfonyl)-hexahydro-pyrrolo[3,2-b]pyrrole-1-carboxylic acid benzyl ester] | 94 nM
11 | C=CC[C@H]1C(=O)N(S(=O)(=O)c2ccccc2)[C@H]2CCN(C(=O)OCc3ccccc3)[C@H]12 (relative stereo) [Example 45, rel-(3aS,6R,6aR)-6-Allyl-4-benzenesulfonyl-5-oxo-hexahydro-pyrrolo[3,2-b]pyrrole-1-carboxylic acid benzyl ester] | 531 nM
12 | CCC[C@H]1C(=O)N(S(C)(=O)=O)[C@H]2CCN(C(=O)CCN3CCOCC3)[C@H]12 (relative stereo) [Example 46, rel-(3R,3aR,6aS)-1-Methanesulfonyl-4-(3-morpholin-4-yl-propionyl)-3-propyl-hexahydro-pyrrolo[3,2-b]pyrrol-2-one] | 143 nM
13 | CCC[C@H]1C(=O)N(S(C)(=O)=O)[C@H]2CCN(C(=O)CCCN3CCOCC3)[C@H]12 (relative stereo) [Example 47, rel-(3R,3aR,6aS)-1-Methanesulfonyl-4-(4-morpholin-4-yl-butyryl)-3-propyl-hexahydro-pyrrolo[3,2-b]pyrrol-2-one] | 109 nM
14 | CCC[C@H]1C(=O)N(S(=O)(=O)c2ccc3ccccc3c2)[C@H]2CCN(C(=O)CCc3ccccn3)[C@H]12 (relative stereo) [Example 48, rel-(3R,3aR,6aS)-1-(Naphthalene-2-sulfonyl)-3-propyl-4-(3-pyridin-2yl-propionyl)-hexahydro-pyrrolo[3,2-b]pyrrol-2-one] | 122 nM
15 | C=CC[C@H]1C(=O)N(S(=O)(=O)c2cccc3cccnc23)[C@H]2CCN(C(=O)OCc3ccccc3)[C@H]12 (relative stereo) [Example 49, rel-(3aS,6R,6aR)-6-Allyl-5-oxo-4-(quinoline-8-sulfonyl)-hexahydro-pyrrolo[3,2-b]pyrrole-1-carboxylic acid benzyl ester] | 412 nM
16 | CCC[C@H]1C(=O)N(S(=O)(=O)c2cccc3c2NCCC3)[C@H]2CCN(C(=O)OCc3ccccc3)[C@H]12 (relative stereo) [Example 50, rel-(3aS,6R,6aR)-5-Oxo-6-propyl-4-(1,2,3,4-tetrahydro-quinoline-8-sulfonyl-hexahydro-pyrrolo[3,2-b]pyrrole-1-carboxylic acid benzyl ester] | 362 nM
17 | CCC[C@H]1C(=O)N(S(=O)(=O)c2cccc3cccnc23)[C@H]2CCN(S(C)(=O)=O)[C@H]12 (relative stereo) [Example 52, rel-(3R,3aR,6aS)-4-Methanesulfonyl-3-propyl-1-(quinoline-8-sulfonyl)-hexahydro-pyrrolo[3,2-b]pyrrol-2-one] | 222 nM

Now those with a lower IC50, led by results:

Row | IC50 | SMILES
18 | 80 nM | CCC[C@H]1C(=O)N(S(=O)(=O)c2cccc3ccccc23)[C@H]2CCN(S(C)(=O)=O)[C@H]12 (relative stereo) [Example 31, rel-(3R,3aR,6aS)-4-Methanesulfonyl-1-(naphthalene-1-sulfonyl)-3-propyl-hexahydro-pyrrolo[3,2-b]pyrrol-2-one]
19 | 52 nM | CCC[C@H]1C(=O)N(S(=O)(=O)c2ccc3ccccc3c2)[C@H]2CCN(S(=O)(=O)Cc3ccccc3)[C@H]12 (relative stereo) [Example 34, rel-(3aR,6R,6aS)-1-(Naphthalene-2-sulfonyl)-4-phenylmethanesulfonyl-3-propyl-hexahydro-pyrrolo[3,2-b]pyrrol-2-one]
20 | 50 nM | CCC[C@H]1C(=O)N(S(=O)(=O)c2ccc3ccccc3c2)[C@H]2CCN(C(=O)CCCCCN3CCCCC3)[C@H]12 (relative stereo) [Example 40, rel-(3R,3aR,6aS)-1-(Naphthalene-2-sulfonyl)-4-(6-piperidin-1-yl-hexanoyl)-3-propyl-hexahydro-pyrrolo[3,2-b]pyrrol-2-one tartrate]
21 | 84 nM | C=CC[C@H]1C(=O)N(S(=O)(=O)c2csc3ccccc23)[C@H]2CCN(C(=O)OCc3ccccc3)[C@H]12 (relative stereo) [Example 41, rel-(3aS,6R,6aR)-6-Allyl-4-(benzo[b]thiophene-3-sulfonyl)-5-oxo-hexahydro-pyrrolo[3,2-b]pyrrole-1-carboxylic acid benzyl ester]
22 | 78 nM | C=CC[C@H]1C(=O)N(S(=O)(=O)c2cc3ccccc3s2)[C@@H]2CCN(C(=O)OCc3ccccc3)[C@H]21 (relative stereo) [Example 42, rel-(3aR,6R,6aS)-6-Allyl-4-(benzo[b]thiophene-2-sulfonyl)-5-oxo-hexahydro-pyrrolo[3,2-b]pyrrole-1-carboxylic acid benzyl ester]
23 | 55 nM | CCC[C@H]1C(=O)N(S(=O)(=O)c2cccc3cnccc23)[C@H]2CCN(S(C)(=O)=O)[C@H]12 (relative stereo) [Example 51, rel-(3R,3aR,6aS)-1-(Isoquinoline-5-sulfonyl)-4-methanesulfonyl-3-propyl-hexahydro-pyrrolo[3,2-b]pyrrol-2-one]
24 | 26 nM | CCC[C@H]1C(=O)N(S(C)(=O)=O)[C@H]2CCN(C(=O)CCCCCCCCCN3CCOCC3)[C@H]12 (relative stereo) [Example 64, rel-(3R,3aR,6aS)-1-Methanesulfonyl-4-(10-morpholin-4-yl-decanoyl)-3-propyl-hexahydro-pyrrolo[3,2-b]pyrrol-2-one DL-tartrate]
25 | 66 nM | CCC[C@H]1C(=O)N(S(C)(=O)=O)[C@H]2CCN(C(=O)CCCCCCCCCN(CC)CC)[C@H]12 (relative stereo) [Example 65, rel-(3R,3aR,6aS)-4-(10-Diethylamino-decanoyl)-1-methanesulfonyl-3-propyl-hexahydro-pyrrolo[3,2-b]pyrrol-2-one DL-tartrate]
